ChEMBL document CHEMBL3808348, “Rational Design, Synthesis, and Biological Evaluation of 7-Azaindole Derivatives as Potent Focused Multi-Targeted Kinase Inhibitors” (J Med Chem, 2016)
pEC50: −log10 of the molar value.

Key:
[1] = molecular target: Vascular endothelial growth factor receptor 2 (Homo sapiens) (UniProt P35968); assay: Inhibition of full length His-tagged human recombinant VEGFR2 expressed in baculovirus using Fluorescein-Poly GT as substrate at 100 nM
[2] = molecular target: Platelet-derived growth factor receptor alpha (Homo sapiens, UniProt P16234); assay: Inhibition of full length GST-tagged human recombinant PDGFRalpha expressed in baculovirus using Fluorescein-Poly GT as substrate at 100 nM
Platelet-derived growth factor receptor alpha, sequence (P16234 whole entry): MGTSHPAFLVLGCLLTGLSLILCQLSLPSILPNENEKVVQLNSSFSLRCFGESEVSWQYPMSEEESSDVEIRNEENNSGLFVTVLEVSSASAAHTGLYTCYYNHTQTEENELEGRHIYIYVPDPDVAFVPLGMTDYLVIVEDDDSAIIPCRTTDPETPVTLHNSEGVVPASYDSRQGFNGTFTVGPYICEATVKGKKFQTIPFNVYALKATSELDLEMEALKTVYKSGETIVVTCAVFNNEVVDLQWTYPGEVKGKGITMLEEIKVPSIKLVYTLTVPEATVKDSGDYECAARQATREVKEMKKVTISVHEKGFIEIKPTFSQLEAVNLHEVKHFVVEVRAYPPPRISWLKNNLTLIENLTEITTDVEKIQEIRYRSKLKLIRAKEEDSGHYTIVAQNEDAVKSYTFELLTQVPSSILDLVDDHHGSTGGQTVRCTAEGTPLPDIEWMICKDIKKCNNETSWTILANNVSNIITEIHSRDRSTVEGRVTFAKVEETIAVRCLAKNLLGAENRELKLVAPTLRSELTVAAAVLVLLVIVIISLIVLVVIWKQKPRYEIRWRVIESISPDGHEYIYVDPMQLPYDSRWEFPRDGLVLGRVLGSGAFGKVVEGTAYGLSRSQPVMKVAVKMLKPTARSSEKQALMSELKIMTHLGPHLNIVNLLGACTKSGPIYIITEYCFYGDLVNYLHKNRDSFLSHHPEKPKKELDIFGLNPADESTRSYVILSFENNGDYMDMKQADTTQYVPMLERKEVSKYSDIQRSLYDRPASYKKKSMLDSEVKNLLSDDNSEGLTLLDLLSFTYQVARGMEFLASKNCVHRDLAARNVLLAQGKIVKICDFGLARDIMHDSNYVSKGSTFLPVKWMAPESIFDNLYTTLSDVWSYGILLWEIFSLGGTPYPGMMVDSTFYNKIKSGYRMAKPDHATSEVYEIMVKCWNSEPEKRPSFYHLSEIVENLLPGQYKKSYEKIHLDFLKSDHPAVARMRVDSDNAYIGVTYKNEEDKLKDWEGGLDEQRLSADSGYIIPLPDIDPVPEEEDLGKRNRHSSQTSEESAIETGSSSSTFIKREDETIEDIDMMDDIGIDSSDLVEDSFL

[3] = molecular target: Serine/threonine-protein kinase B-raf (Homo sapiens) (UniProt P15056); assay: Inhibition of full length GST-tagged human recombinant BRAF expressed in baculovirus using Fluorescein-MAP2K1 as substrate at 100 nM
Serine/threonine-protein kinase B-raf (Homo sapiens), sequence (P15056 whole entry): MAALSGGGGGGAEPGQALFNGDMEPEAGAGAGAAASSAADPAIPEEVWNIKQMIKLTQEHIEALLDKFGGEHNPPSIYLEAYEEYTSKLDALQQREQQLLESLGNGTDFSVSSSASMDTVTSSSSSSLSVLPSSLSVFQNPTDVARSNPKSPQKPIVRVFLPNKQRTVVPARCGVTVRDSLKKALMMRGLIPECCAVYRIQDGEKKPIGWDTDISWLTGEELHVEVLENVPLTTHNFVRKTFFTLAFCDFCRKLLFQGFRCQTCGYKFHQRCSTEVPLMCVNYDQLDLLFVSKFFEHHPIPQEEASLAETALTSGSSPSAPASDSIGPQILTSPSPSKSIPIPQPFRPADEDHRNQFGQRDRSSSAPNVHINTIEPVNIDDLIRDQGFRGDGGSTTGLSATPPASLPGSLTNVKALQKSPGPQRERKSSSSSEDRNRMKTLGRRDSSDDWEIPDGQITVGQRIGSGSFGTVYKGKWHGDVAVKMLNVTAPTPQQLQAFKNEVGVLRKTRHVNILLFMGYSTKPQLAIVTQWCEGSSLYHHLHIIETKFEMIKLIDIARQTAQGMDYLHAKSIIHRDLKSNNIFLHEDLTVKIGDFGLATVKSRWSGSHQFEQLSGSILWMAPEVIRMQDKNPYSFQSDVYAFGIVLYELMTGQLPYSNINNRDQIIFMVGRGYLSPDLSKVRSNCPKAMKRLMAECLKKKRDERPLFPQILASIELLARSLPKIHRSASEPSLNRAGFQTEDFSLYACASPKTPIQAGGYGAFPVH

[4] = molecular target: Proto-oncogene tyrosine-protein kinase Src (Homo sapiens, UniProt P12931); assay: Inhibition of full length His-tagged human recombinant cSRC expressed in baculovirus using Fluorescein-Poly GT as substrate at 100 nM
Proto-oncogene tyrosine-protein kinase Src, sequence (P12931 2-536 limits assumed): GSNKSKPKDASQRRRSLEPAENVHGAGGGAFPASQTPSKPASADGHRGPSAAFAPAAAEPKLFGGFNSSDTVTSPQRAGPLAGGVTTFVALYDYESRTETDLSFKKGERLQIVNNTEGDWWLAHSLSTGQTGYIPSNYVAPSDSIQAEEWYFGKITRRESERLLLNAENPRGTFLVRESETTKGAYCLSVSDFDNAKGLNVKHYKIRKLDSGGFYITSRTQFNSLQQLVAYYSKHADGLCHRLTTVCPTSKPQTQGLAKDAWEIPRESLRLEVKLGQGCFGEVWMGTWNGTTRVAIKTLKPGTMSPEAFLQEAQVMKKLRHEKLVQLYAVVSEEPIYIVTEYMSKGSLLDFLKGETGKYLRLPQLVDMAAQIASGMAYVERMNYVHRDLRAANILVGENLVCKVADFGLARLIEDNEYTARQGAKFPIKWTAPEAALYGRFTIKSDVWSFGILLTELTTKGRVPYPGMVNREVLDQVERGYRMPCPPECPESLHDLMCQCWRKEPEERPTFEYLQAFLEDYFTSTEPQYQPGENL

[5] = molecular target: Fibroblast growth factor receptor 2 (Homo sapiens) (UniProt P21802); assay: Inhibition of His-tagged human recombinant FGFR2 (403 to 822 residues) expressed in baculovirus using Fluorescein-Poly GT as substrate at 100 nM
Fibroblast growth factor receptor 2 (Homo sapiens), sequence (P21802 22-821 limits assumed): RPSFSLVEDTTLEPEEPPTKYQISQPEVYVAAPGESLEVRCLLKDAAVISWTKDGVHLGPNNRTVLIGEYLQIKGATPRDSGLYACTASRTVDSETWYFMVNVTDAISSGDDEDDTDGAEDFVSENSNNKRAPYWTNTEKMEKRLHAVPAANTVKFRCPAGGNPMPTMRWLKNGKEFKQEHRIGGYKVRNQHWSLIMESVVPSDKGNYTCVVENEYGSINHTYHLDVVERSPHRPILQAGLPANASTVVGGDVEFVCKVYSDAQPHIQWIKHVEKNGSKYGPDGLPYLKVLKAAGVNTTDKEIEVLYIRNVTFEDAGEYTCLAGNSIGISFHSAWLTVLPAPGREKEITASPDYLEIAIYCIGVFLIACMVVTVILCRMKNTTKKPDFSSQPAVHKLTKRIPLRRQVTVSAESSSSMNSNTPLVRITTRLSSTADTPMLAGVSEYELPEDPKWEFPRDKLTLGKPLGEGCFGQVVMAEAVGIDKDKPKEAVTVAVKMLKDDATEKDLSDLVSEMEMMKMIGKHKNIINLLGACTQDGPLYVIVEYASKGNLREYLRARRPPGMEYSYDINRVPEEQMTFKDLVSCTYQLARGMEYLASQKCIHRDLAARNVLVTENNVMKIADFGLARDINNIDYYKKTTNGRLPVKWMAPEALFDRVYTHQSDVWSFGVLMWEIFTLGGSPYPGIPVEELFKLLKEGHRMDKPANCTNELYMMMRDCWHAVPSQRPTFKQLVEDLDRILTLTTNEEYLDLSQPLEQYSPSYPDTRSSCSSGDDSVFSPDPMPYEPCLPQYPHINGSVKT

[6] = molecular target: Epidermal growth factor receptor (Homo sapiens, UniProt P00533); assay: Inhibition of GST-tagged human recombinant EGFR (668 to1210 residues) expressed in baculovirus using Fluorescein-Poly GT as substrate at 100 nM
Epidermal growth factor receptor, sequence (P00533 whole entry, the tested form may be a part): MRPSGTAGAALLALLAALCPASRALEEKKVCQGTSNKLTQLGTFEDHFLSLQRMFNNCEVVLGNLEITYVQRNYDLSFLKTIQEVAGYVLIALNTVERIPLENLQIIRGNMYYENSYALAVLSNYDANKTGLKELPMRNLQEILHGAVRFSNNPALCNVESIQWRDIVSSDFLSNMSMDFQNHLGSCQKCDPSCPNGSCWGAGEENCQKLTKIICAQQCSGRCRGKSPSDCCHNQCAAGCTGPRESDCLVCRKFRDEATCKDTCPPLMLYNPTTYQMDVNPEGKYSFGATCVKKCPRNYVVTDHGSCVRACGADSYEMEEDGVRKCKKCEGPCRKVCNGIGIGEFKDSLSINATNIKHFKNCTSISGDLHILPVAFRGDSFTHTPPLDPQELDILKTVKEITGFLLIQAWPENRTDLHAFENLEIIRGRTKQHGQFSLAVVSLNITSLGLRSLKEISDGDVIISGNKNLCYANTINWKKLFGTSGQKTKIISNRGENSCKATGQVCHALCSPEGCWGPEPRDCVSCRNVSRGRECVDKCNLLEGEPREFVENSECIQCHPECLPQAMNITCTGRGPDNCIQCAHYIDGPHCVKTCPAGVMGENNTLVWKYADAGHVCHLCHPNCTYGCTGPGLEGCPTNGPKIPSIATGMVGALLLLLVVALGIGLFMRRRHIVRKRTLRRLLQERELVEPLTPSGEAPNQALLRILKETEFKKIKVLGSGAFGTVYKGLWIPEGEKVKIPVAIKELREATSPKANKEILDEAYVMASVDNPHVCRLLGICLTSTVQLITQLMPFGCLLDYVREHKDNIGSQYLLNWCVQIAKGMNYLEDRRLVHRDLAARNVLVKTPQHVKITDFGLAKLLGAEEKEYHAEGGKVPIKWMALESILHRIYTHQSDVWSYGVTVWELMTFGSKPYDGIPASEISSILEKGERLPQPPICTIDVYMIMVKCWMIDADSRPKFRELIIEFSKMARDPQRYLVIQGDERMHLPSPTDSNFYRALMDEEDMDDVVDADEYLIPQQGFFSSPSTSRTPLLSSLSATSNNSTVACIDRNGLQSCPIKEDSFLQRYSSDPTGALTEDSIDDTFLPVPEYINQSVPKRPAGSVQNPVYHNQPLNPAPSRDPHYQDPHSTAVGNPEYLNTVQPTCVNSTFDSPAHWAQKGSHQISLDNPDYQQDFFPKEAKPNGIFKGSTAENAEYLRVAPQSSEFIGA

HepG2 = assay: Antiproliferative activity against human HepG2 cells after 72 hrs by MTT assay; assay type: functional, cell-based; settings: HepG2, 72 h
HUVEC = assay: Antiangiogenic activity in HUVEC after 72 hrs by MTT assay; assay type: functional, cell-based; settings: Homo sapiens

Row | inhibition [1] [%] | inhibition [2] [%] | inhibition [3] [%] | inhibition [4] [%] | inhibition [5] [%] | inhibition [6] [%] | pEC50 (HepG2) | Compound | pEC50 (HUVEC)
1 | 93 | 95 | 86 | 98 | 23 | 99 | < 6.00 | CNC(=O)c1cc2cc(NCc3cc(NC(=O)c4ccc(CN5CCN(C)CC5)cc4)ccc3C)cnc2[nH]1 | < 6.00
2 | 19 | 47 | 16 | 74 | 10 | 64 | – | COC(=O)c1cc2cc(NCc3cc(NC(=O)c4ccc(C)c(C(F)(F)F)c4)ccc3C)cnc2[nH]1 | –
3 | 42 | 93 | 62 | 78 | 12 | 16 | – | COC(=O)c1cc2cc(NCc3cc(NC(=O)c4ccccc4OC)ccc3C)cnc2[nH]1 | –
4 | 97 | 41 | 71 | 94 | 8 | 65 | < 6.00 | COC(=O)c1cc2cc(NC(=O)c3cc(NC(=O)c4ccc(CN5CCN(C)CC5)cc4)ccc3C)cnc2[nH]1 | < 6.00
5 | 36 | 74 | 37 | 66 | 3 | 53 | – | COC(=O)c1cc2cc(NCc3cc(NC(=O)c4ccc(O)c(C(F)(F)F)c4)ccc3C)cnc2[nH]1 | –
6 | 89 | 93 | 95 | 89 | 19 | 72 | 6.29 | COC(=O)c1cc2cc(NCc3cc(NC(=O)c4cncc(C)c4)ccc3C)cnc2[nH]1 | < 6.00
7 | 59 | 87 | 65 | 59 | -4 | 45 | < 6.00 | COC(=O)c1cc2cc(NCc3cc(NC(=O)c4ccc5[nH]ccc5c4)ccc3C)cnc2[nH]1 | 6.70
8 | 38 | 68 | 39 | 108 | 7 | 63 | – | COC(=O)c1cc2cc(NCc3cc(NC(=O)c4cccc(C(F)(F)F)c4)ccc3C)cnc2[nH]1 | –
9 | 80 | 66 | 33 | 86 | 71 | 98 | – | Cc1ccc(NC(=O)c2ccc(CN3CCC(N(C)C)C3)c(C(F)(F)F)c2)cc1CNc1cnc2[nH]c(C(=O)O)cc2c1 (configuration not stated) | –
10 | 88 | 96 | 35 | 87 | 5 | 99 | – | CC(=O)c1cc2cc(NCc3cc(NC(=O)c4ccc(CN5CCN(C)CC5)cc4)ccc3C)cnc2[nH]1 | –
11 | 86 | 96 | 15 | 87 | 69 | 93 | < 6.00 | COC(=O)c1cc2cc(COc3cc(NC(=O)c4ccc(CN5CCC(N(C)C)C5)c(C(F)(F)F)c4)ccc3C)cnc2[nH]1 (configuration not stated) | 6.37
12 | 92 | 86 | 67 | 77 | 18 | 86 | < 6.00 | CC(=O)c1cc2cc(CCc3cc(NC(=O)c4ccc(CN5CCN(C)CC5)cc4)ccc3C)cnc2[nH]1 | 6.93
13 | 58 | 63 | 18 | 69 | 49 | 91 | – | Cc1cn(-c2cc(C(=O)Nc3ccc(C)c(CNc4cnc5[nH]c(C(=O)O)cc5c4)c3)cc(C(F)(F)F)c2)cn1 | –
14 | 73 | 85 | 60 | 93 | 21 | 81 | < 6.00 | COC(=O)c1cc2cc(NCc3cc(NC(=O)c4ccc(CN5CCN(C)CC5)cc4)ccc3C)cnc2[nH]1 | < 6.00
15 | 98 | 99 | – | 91 | 35 | 98 | – | COC(=O)c1cc2cc(CCc3cc(NC(=O)c4ccc(CN5CCN(C)CC5)cc4)ccc3C)cnc2[nH]1 | –
16 | 61 | 68 | 33 | 55 | 38 | 59 | – | COC(=O)c1cc2cc(/C=C/c3cc(NC(=O)c4ccc(CN5CCC(N(C)C)C5)c(C(F)(F)F)c4)ccc3C)cnc2[nH]1 (configuration not stated) | –
17 | 40 | 66 | 29 | 105 | 8 | 39 | – | COC(=O)c1cc2cc(NCc3cc(NC(=O)c4cccc(OC(F)(F)F)c4)ccc3C)cnc2[nH]1 | –

Row | inhibition [1] [%] | inhibition [2] [%] | inhibition [3] [%] | inhibition [4] [%] | inhibition [5] [%] | inhibition [6] [%] | pEC50 (HepG2) | Compound | pEC50 (HUVEC)
18 | 72 | 79 | 12 | 75 | 14 | 96 | – | Cc1ccc(NC(=O)c2ccc(CN3CCN(C)CC3)cc2)cc1CNc1cnc2[nH]c(C(=O)O)cc2c1 | –
19 | 72 | 87 | 74 | 84 | 6 | 32 | – | COC(=O)c1cc2cc(NCc3cc(NC(=O)c4cccc(C)c4)ccc3C)cnc2[nH]1 | –
20 | 32 | 61 | 24 | 99 | 15 | 52 | – | COC(=O)c1cc2cc(NCc3cc(NC(=O)c4cccc(C(C)C)c4)ccc3C)cnc2[nH]1 | –
21 | 41 | 97 | 71 | 65 | 8 | -1 | – | COC(=O)c1cc2cc(NCc3cc(NC(=O)Cc4ccccc4Br)ccc3C)cnc2[nH]1 | –
22 | 67 | 98 | 7 | 58 | 14 | 81 | – | COC(=O)c1cc2cc(COc3cc(NC(=O)c4ccc(CN5CCN(C)CC5)cc4)ccc3C)cnc2[nH]1 | –
23 | 24 | 24 | 55 | 59 | 13 | 43 | – | CC(=O)c1cc2cc(NCc3cc(NC(=O)c4cc(-n5cnc(C)c5)cc(C(F)(F)F)c4)ccc3C)cnc2[nH]1 | –
24 | 13 | 42 | -7 | 42 | -2 | 32 | – | COC(=O)c1cc2cc(NCc3cc(NC(=O)c4ccnc(C(F)(F)F)c4)ccc3C)cnc2[nH]1 | –
25 | 0 | 76 | 50 | 39 | -7 | 81 | – | COC(=O)c1cc2cc(NCc3cc(NC(=O)c4ccc(C(F)(F)F)nc4)ccc3C)cnc2[nH]1 | –
26 | 18 | 77 | 69 | 34 | 4 | 20 | – | COC(=O)c1cc2cc(NCc3cc(NC(=O)c4ccc5nn[nH]c5c4)ccc3C)cnc2[nH]1 | –
27 | 51 | 88 | 24 | 40 | 2 | 38 | – | COC(=O)c1cc2cc(/C=C/c3cc(NC(=O)c4ccc(CN5CCN(C)CC5)cc4)ccc3C)cnc2[nH]1 | –
28 | 46 | 88 | 17 | 47 | 8 | 63 | – | COC(=O)c1cc2cc(CNc3cc(NC(=O)c4ccc(CN5CCN(C)CC5)cc4)ccc3C)cnc2[nH]1 | –
29 | 59 | 87 | 63 | 85 | 1 | 35 | – | COC(=O)c1cc2cc(NCc3cc(NC(=O)c4cccc(Br)c4)ccc3C)cnc2[nH]1 | –
30 | 29 | 87 | 61 | 58 | 6 | 2 | – | COC(=O)c1cc2cc(NCc3cc(NC(=O)Cc4cccc(C(F)(F)F)c4)ccc3C)cnc2[nH]1 | –
31 | 37 | 71 | 51 | 11 | 4 | 15 | – | COC(=O)c1cc2cc(NCc3cc(NC(=O)c4cc[nH]c4)ccc3C)cnc2[nH]1 | –
32 | 9 | 71 | 11 | 86 | 5 | 64 | – | COC(=O)c1cc2cc(NCc3cc(NC(=O)c4ccc(Cl)c(C(F)(F)F)c4)ccc3C)cnc2[nH]1 | –
33 | 22 | 42 | 14 | 108 | 5 | 42 | – | COC(=O)c1cc2cc(NCc3cc(NC(=O)c4cc(N(C)C)cc(C(F)(F)F)c4)ccc3C)cnc2[nH]1 | –
34 | 13 | 74 | 35 | 72 | -1 | 66 | – | COC(=O)c1cc2cc(NCc3cc(NC(=O)c4ccc(-c5csc(C)n5)cc4)ccc3C)cnc2[nH]1 | –
